One test relates to rabbit platelet. Put plainly: collagen-induced aggregation of washed rabbit platelets (turbidimetry). In kind it is cell-based. The following applies: comparison with norathyrol. As for the experimental part:
It is known that ADP, arachidonic acid, PAF and collagen treatment will lead to the aggregation of rabbit platelet. […] Using 10 μg/ml of collagen as inducer of platelet aggregation, tile replacement of the methoxy or hydroxy group on the C-3 by the 3-propylamino-2-hydroxypropoxyl group increases the inhibitory effect on platelet aggregation. The reaction mechanisms of 1,3,6,7,-tetraoxygenated xanthones and 3,4-dihydroxygenated xanthone inhibit the formation of A2 -thromboxane and the degradation of phosphoinositide, and inhibit the activity of A2 -thromboxane, respectively.
Based on the method of Teng et. al. (Ouyang, C. Biochem. Biophys. Acta. 1987, 924:375), rabbit platelets were washed with platelet-rich plasma which was adjusted with EDTA for anti-aggregation. Counted by Coulter Counter (model, ZM), the platelets were adjusted to a density of 4.5×10^8 platelets/ml by Tyrode's solution which contains 136.8 mM NaCl, 2.8 mM KCl, 1.0 mM CaCl2 and 11.2 mM glucose, and 0. 35% bovine serum albumin. Platelets were agitated at a speed of 1200 rpm to form a suspension. All xanthone derivatives tested were dissolved in DMSO. The concentration of DMSO was limited to 0.5% to prevent its interference to the aggregation reaction. The aggregation was assayed by O'Brin's turbidometer. To determine the degree of aggregation, the absorbance of platelet suspension was referred as 0% aggregation and that of the platelet […] was used for 100%. Lumiaggregometer (Chromo-Log Co. USA) was used to carry out the aggregation assay.

For another test, the system named is platelet. Conditions: literature report; cited from earlier work.
Test [1] concerns the target angiotension I converting enzyme. The experiment in a line: inhibition of angiotension I converting enzyme. In kind it is biochemical. Conditions: read-out: IC50 toward angiotension I converting enzyme.
Another test deals with anesthetized rats. Put plainly: blood pressure and heart beat of anesthetized rats after i.v. injection. In kind it is in vivo. Conditions: for blood pressure of anesthetized rats: anesthetized rat.
Another test concerns rat's thoracic aorta. The experiment in a line: contraction of rat's thoracic aorta induced by calcium/high potassium or norepinephrine.
Another test deals with myocardiac cells. The following applies: literature report; cited from earlier work.
The subject of test [2] is atrioventricular conduction. Conditions: literature report; cited from earlier work.
Another test relates to peripheral blood vessels. Conditions: literature report; cited from earlier work.

As a reminder, the IC50 is the point on the concentration scale where inhibition reaches its midpoint.

angiotension I converting enzyme, sequence (P12821 30-1306): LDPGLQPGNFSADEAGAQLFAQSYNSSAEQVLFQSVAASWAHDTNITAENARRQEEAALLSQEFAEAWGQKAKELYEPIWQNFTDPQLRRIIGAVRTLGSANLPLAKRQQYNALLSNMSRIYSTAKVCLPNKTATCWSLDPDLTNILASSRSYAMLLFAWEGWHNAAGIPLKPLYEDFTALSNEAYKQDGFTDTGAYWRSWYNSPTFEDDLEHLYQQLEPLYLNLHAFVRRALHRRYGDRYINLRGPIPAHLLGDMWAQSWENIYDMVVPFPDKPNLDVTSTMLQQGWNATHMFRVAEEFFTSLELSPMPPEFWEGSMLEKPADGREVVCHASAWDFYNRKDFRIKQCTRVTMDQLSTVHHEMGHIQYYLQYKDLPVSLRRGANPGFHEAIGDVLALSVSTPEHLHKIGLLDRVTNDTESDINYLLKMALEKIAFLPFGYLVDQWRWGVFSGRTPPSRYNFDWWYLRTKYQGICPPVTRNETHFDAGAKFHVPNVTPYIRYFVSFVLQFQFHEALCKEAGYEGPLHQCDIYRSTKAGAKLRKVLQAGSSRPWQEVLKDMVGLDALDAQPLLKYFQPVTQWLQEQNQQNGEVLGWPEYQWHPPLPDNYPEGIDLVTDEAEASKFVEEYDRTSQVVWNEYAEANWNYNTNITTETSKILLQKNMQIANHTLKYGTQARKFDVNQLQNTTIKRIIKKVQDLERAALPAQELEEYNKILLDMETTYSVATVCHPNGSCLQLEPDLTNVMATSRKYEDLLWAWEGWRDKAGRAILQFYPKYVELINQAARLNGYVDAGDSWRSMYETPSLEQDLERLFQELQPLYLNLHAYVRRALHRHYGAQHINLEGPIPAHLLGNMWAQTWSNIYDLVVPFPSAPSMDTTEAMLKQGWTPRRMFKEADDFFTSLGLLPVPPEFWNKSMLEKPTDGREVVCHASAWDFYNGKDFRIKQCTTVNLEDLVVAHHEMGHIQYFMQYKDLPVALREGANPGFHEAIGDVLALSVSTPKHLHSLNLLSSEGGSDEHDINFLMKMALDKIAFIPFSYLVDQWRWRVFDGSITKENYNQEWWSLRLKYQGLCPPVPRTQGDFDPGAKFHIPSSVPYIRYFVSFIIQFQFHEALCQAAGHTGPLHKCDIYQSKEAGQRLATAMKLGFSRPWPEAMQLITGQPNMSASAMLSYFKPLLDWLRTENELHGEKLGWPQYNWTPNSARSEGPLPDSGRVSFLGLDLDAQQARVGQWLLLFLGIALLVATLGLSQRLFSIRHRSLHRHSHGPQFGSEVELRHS

Regarding `CC(=O)Oc1cc2oc3ccccc3c(=O)c2cc1OC(C)=O` [2,3-dihydroxyxanthone diacetate, 2,3-Dihydroxyxanthone diacetate], the “effect on inhibiting collagen-induced platelet aggregation, compared with norathyrol” value in the test with rabbit platelet is listed as “more significant effect on inhibiting collagen-induced platelet aggregation than norathyrol”. Take tripteroside acetate: the “inhibition on platelet aggregation” value in the test on platelet is on record as “strong inhibition on platelet aggregation”.

As to `O=c1c2cc(O)c(O)cc2oc2c(O)c(O)ccc12` [3,4,6,7-tetrahydroxyxanthone, 3,4,6,7-Tetrahydroxyxanthone], the IC50 in test [1] was found to be 35.4 µM. For the same molecule, the “blood pressure of anesthetized rats” value in the test on anesthetized rats was “reducing the blood pressure”. In the case of `O=c1c2ccccc2oc2cc(O)c(O)cc12` [2,3-dihydroxyxanthone, 2,3-Dihydroxyxanthone], the “blood pressure of anesthetized rats” value in the test with anesthetized rats is given as “significantly lowered the blood pressure”. The “inhibition of muscle contraction in rat's thoracic aorta induced by calcium ion at high potassium” value with rat's thoracic aorta (100 μg/ml, 1.9 mM calcium ion, 80 mM potassium ion) is “significantly inhibit”. Besides, in the test with rat's thoracic aorta (100 μg/ml, 3 mM norepinephrine), the “inhibition of phasic or tonic muscle contraction induced by norepinephrine” value is “significantly inhibit”. In the case of `CC(=O)Oc1cc(OC(C)=O)c2c(=O)c3cc(OC(C)=O)c(OC(C)=O)cc3oc2c1` [norathyrol acetate], the “inhibition on platelet aggregation” value in the test on platelet was “strong inhibition on platelet aggregation”.

Consider `O=c1c2cc(O)c(O)cc2oc2cc(O)cc(O)c12` [norathyriol], for which the “inhibition of calcium influx in myocardiac cells” value with myocardiac cells was “inhibit the calcium influx”. In test [2], the “atrioventricular conduction of a rabbit” value was “significantly depress the atrioventricular conduction”. For the same molecule, the “relaxation of peripheral blood vessels” value with peripheral blood vessels is on record as “strongly relax the peripheral blood vessels”. `O=c1c2ccccc2oc2cc(OCC(O)CNC3CCCCC3)ccc12` (stereo not drawn) [3-[3-(Cyclohexylamino)-2-hydroxypropoxy] xanthone]: the “effect on inhibiting collagen-induced platelet aggregation, compared with norathyrol” value in the test with rabbit platelet was “more significant effect on inhibiting collagen-induced platelet aggregation than norathyrol”. For `CC(=O)Oc1cc2oc3c(OC(C)=O)c(OC(C)=O)ccc3c(=O)c2cc1OC(C)=O` [3 '4 '6 '7-Tetrahydroxyxanthone acetate], the “effect on inhibiting collagen-induced platelet aggregation, compared with norathyrol” value in the test with rabbit platelet was “more significant effect on inhibiting collagen-induced platelet aggregation than norathyrol”.

Consider `CCCNCC(O)COc1ccc2c(=O)c3ccccc3oc2c1` (stereo not drawn) [3 [3-(propylamino)-2-hydroxypropoxy]xanthone], for which, in the test with anesthetized rats, the “heart beat of the anesthetized rat” value was “slow down the heart beat” and the “blood pressure of anesthetized rats” value is given as “significantly reduce the blood pressure”. With `CC(C)NCC(O)COc1ccc2c(=O)c3ccccc3oc2c1` (stereo not drawn) [3[3-(Isopropylamino)-2-hydroxypropoxyl)] xanthone], in the test with anesthetized rats, the “heart beat of the anesthetized rat” value is listed as “slow down the heart beat” and the “blood pressure of anesthetized rats” value was “significantly reduce the blood pressure”. For the same molecule, the “inhibition of contraction of rat's thoracic aorta induced by high potassium” value in the test on rat's thoracic aorta (10^-4 M, potassium ion 100 mM) was “significantly inhibit the contraction”.

The record behind these values is patent US5495005A, “Synthesis and pharmacological activity of a series of novel xanthone derivatives” (National Science Council, priority 1993, dated 1996).
